Target: Guanine deaminase (Oryctolagus cuniculus)
Experiment: Binding affinity against Guanine deaminase (guanase) from rabbit liver was determined

N=c1nc(N)nc(N)c2c1N(COCCO)CN2
Ki: 29.7 µM
